Results reported in PubChem BioAssay AID2060609 (Molecular Pharmacology Branch, DTP, NCI, 2025).
“And” between values parts separate entries of the source, which are not always exact repeats. Identical values can stand only once.

System: 855422-203-R-J1-PDC complex spheroids, viability
Assay: Anticancer human tumor 855422-203-R-J1-PDC patient-derived bladder carcinoma cell line growth inhibition [CLK]
Details: for viability, T/C: stronger effect = lower value
Outline: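 Patient-derived tumor cells grown as complex spheroids with HUVEC endothelial cells and mesenchymal stem cells, treated with drug combinations. Concentrations descend in half-log steps from near clinical Cmax, or from 10 microM if Cmax unknown.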

[1] = curve of first compound, second compound 0.0316 µM
[2] = curve of first compound, second compound 0.1 µM
[3] = curve of first compound, second compound 0.316 µM
[4] = curve of first compound, second compound 1 µM
[5] = curve of first compound, second compound 3.16 µM
[6] = curve of first compound, second compound 10 µM
[7] = second compound 0.0316 µM, first compound 0.0316 µM
[8] = second compound 0.0316 µM, first compound 0.1 µM
[9] = second compound 0.0316 µM, first compound 0.316 µM
[10] = second compound 0.0316 µM, first compound 1 µM
[11] = second compound 0.0316 µM, first compound 3.16 µM
[12] = second compound 0.0316 µM, first compound 10 µM
[13] = second compound 0.1 µM, first compound 0.0316 µM
[14] = second compound 0.1 µM, first compound 0.1 µM
[15] = second compound 0.1 µM, first compound 0.316 µM
[16] = second compound 0.1 µM, first compound 1 µM
[17] = second compound 0.1 µM, first compound 3.16 µM
[18] = second compound 0.1 µM, first compound 10 µM
[19] = second compound 0.316 µM, first compound 0.0316 µM
[20] = second compound 0.316 µM, first compound 0.1 µM
[21] = second compound 0.316 µM, first compound 0.316 µM
[22] = second compound 0.316 µM, first compound 1 µM
[23] = second compound 0.316 µM, first compound 3.16 µM
[24] = second compound 0.316 µM, first compound 10 µM
[25] = second compound 1 µM, first compound 0.0316 µM
[26] = second compound 1 µM, first compound 0.1 µM
[27] = second compound 1 µM, first compound 0.316 µM
[28] = second compound 1 µM, first compound 1 µM
[29] = second compound 1 µM, first compound 3.16 µM
[30] = second compound 1 µM, first compound 10 µM
[31] = second compound 3.16 µM, first compound 0.0316 µM
[32] = second compound 3.16 µM, first compound 0.1 µM
[33] = second compound 3.16 µM, first compound 0.316 µM
[34] = second compound 3.16 µM, first compound 1 µM
[35] = second compound 3.16 µM, first compound 3.16 µM
[36] = second compound 3.16 µM, first compound 10 µM
[37] = second compound 10 µM, first compound 0.0316 µM
[38] = second compound 10 µM, first compound 0.1 µM
[39] = second compound 10 µM, first compound 0.316 µM
[40] = second compound 10 µM, first compound 1 µM
[41] = second compound 10 µM, first compound 3.16 µM
[42] = second compound 10 µM, first compound 10 µM
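Note: spheroids exposed to drugs for seven days before readout.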
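Throughout, for viability, T/C: 100% = DMSO vehicle control wells.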

In the case of `CC1(C)CCC(CN2CCN(c3ccc(C(=O)NS(=O)(=O)c4ccc(NCC5CCOCC5)c([N+](=O)[O-])c4)c(Oc4cnc5[nH]ccc5c4)c3)CC2)=C(c2ccc(Cl)cc2)C1` + CNC(=O)c1ccc(Nc2nc(OC3CCCC3)c3c(-c4ccc5nc(C)oc5c4)c[nH]c3n2)c(OC)c1, the IC50 [1] is reported as 6.59 µM, the IC50 [2] is reported as 4.22 µM and the IC50 [3] is reported as less than 0.0316 µM. For the same compound, the IC50 [4] was less than 0.0316 µM, the IC50 [5] was less than 0.0316 µM and the IC50 [6] was less than 0.0316 µM. The viability, T/C [7] was 128%, the viability, T/C [8] was 118% and the viability, T/C [9] was 116%. It also gave a viability, T/C [10] of 125%, a viability, T/C [11] of 173% and a viability, T/C [12] of 3.47%. It also gave a viability, T/C [13] of 54.1%, a viability, T/C [14] of 68.9% and a viability, T/C [15] of 62.4%. It also gave a viability, T/C [16] of 75.5%, a viability, T/C [17] of 69.2% and a viability, T/C [18] of 2.06%. The viability, T/C [19] was 20.6%, the viability, T/C [20] was 23.1% and the viability, T/C [21] was 28.9%. For the same compound, the viability, T/C [22] was 20.9%, the viability, T/C [23] was 20.5% and the viability, T/C [24] was 3.1%. It also gave a viability, T/C [25] of 21.3%, a viability, T/C [26] of 18.3% and a viability, T/C [27] of 19.3%. It also gave a viability, T/C [28] of 27.2%, a viability, T/C [29] of 23.3% and a viability, T/C [30] of 3.87%. For the same compound, the viability, T/C [31] was 22.6%, the viability, T/C [32] was 24.9% and the viability, T/C [33] was 19.5%. For the same compound, the viability, T/C [34] was 22.9%, the viability, T/C [35] was 19.1% and the viability, T/C [36] was 6.53%. The viability, T/C [37] was 17.3%, the viability, T/C [38] was 19.6% and the viability, T/C [39] was 19.3%. For the same compound, the viability, T/C [40] was 19.4%, the viability, T/C [41] was 19.3% and the viability, T/C [42] was 4.56%.

For `CC(CO)NC(=O)c1cc(-c2ccc(Cl)cc2)nn(-c2cnn(C)c2)c1=O` (stereo not given) + CN1CCN(c2cc(C(=O)Nc3cc4cc(-c5cnn(C)c5)ccc4cn3)ccn2)CC1, the IC50 [1] was greater than 10 µM, the IC50 [2] was greater than 10 µM and the IC50 [3] was less than 0.0316 µM. The IC50 [4] was less than 0.0316 µM, the IC50 [5] was less than 0.0316 µM and the IC50 [6] was less than 0.0316 µM. For the same compound, the viability, T/C [7] was 85.4%, the viability, T/C [8] was 97.9% and the viability, T/C [9] was 95.9%. For the same compound, the viability, T/C [10] was 104%, the viability, T/C [11] was 101% and the viability, T/C [12] was 90.2%. It also gave a viability, T/C [13] of 72.6%, a viability, T/C [14] of 83.2% and a viability, T/C [15] of 77.1%. It also gave a viability, T/C [16] of 93.9%, a viability, T/C [17] of 90.5% and a viability, T/C [18] of 69.4%. It also gave a viability, T/C [19] of 8.6%, a viability, T/C [20] of 12.4% and a viability, T/C [21] of 11.9%. For the same compound, the viability, T/C [22] was 12.4%, the viability, T/C [23] was 13.4% and the viability, T/C [24] was 9.74%. The viability, T/C [25] was 0.24%, the viability, T/C [26] was 0.3% and the viability, T/C [27] was 0.22%. For the same compound, the viability, T/C [28] was 0.28%, the viability, T/C [29] was 0.25% and the viability, T/C [30] was 0.24%. For the same compound, the viability, T/C [31] was 2.96%, the viability, T/C [32] was 0.65% and the viability, T/C [33] was 0.95%. For the same compound, the viability, T/C [34] was 0.69%, the viability, T/C [35] was 1.1% and the viability, T/C [36] was 0.53%. It also gave a viability, T/C [37] of 0.44%, a viability, T/C [38] of 0.45% and a viability, T/C [39] of 0.33%. It also gave a viability, T/C [40] of 1.12%, a viability, T/C [41] of 1.09% and a viability, T/C [42] of 0.43%.

For `O=c1[nH]cc(F)c(=O)[nH]1` + CN1CCN(c2cc(C(=O)Nc3cc4cc(-c5cnn(C)c5)ccc4cn3)ccn2)CC1, the IC50 [1] was 3.8 µM, the IC50 [2] was 3.35 µM and the IC50 [3] was less than 0.0316 µM. It also gave an IC50 [4] of less than 0.0316 µM, an IC50 [5] of less than 0.0316 µM and an IC50 [6] of less than 0.0316 µM. For the same compound, the viability, T/C [7] was 109%, the viability, T/C [8] was 102% and the viability, T/C [9] was 96.8%. The viability, T/C [10] was 64.4%, the viability, T/C [11] was 56.9% and the viability, T/C [12] was 41.1%. For the same compound, the viability, T/C [13] was 82.2%, the viability, T/C [14] was 90.6% and the viability, T/C [15] was 85.6%. The viability, T/C [16] was 68.1%, the viability, T/C [17] was 52.4% and the viability, T/C [18] was 39.7%. It also gave a viability, T/C [19] of 10.1%, a viability, T/C [20] of 12.3% and a viability, T/C [21] of 9.14%. It also gave a viability, T/C [22] of 11.6%, a viability, T/C [23] of 14.1% and a viability, T/C [24] of 6.87%. It also gave a viability, T/C [25] of 0.14%, a viability, T/C [26] of 0.18% and a viability, T/C [27] of 0.21%. The viability, T/C [28] was 0.12%, the viability, T/C [29] was 0.19% and the viability, T/C [30] was 0.15%. The viability, T/C [31] was 0.72%, the viability, T/C [32] was 0.53% and the viability, T/C [33] was 0.97%. For the same compound, the viability, T/C [34] was 0.5%, the viability, T/C [35] was 1.23% and the viability, T/C [36] was 0.45%. For the same compound, the viability, T/C [37] was 0.21%, the viability, T/C [38] was 0.23% and the viability, T/C [39] was 0.37%. The viability, T/C [40] was 0.21%, the viability, T/C [41] was 0.32% and the viability, T/C [42] was 0.2%.

`CCc1c2c(nc3ccc(O)cc13)-c1cc3c(c(=O)n1C2)COC(=O)[C@]3(O)CC` + CNC(=O)c1ccc(Nc2nc(OC3CCCC3)c3c(-c4ccc5nc(C)oc5c4)c[nH]c3n2)c(OC)c1 gave an IC50 [1] of 0.00392 µM, an IC50 [2] of less than 0.00316 µM and an IC50 [3] of less than 0.00316 µM. For the same compound, the IC50 [4] was less than 0.00316 µM, the IC50 [5] was less than 0.00316 µM and the IC50 [6] was less than 0.00316 µM. The viability, T/C (second compound 0.0316 µM, first compound 0.00316 µM) was 58.1%, the viability, T/C (second compound 0.0316 µM, first compound 0.01 µM) was 14.6% and the viability, T/C [7] was 10.3%. The viability, T/C [8] was 4.46%, the viability, T/C [9] was 2.37% and the viability, T/C [10] was 2.42%. It also gave a viability, T/C (second compound 0.1 µM, first compound 0.00316 µM) of 31.4%, a viability, T/C (second compound 0.1 µM, first compound 0.01 µM) of 13.2% and a viability, T/C [13] of 8.17%. For the same compound, the viability, T/C [14] was 3.32%, the viability, T/C [15] was 2.65% and the viability, T/C [16] was 1.46%. For the same compound, the viability, T/C (second compound 0.316 µM, first compound 0.00316 µM) was 18.2%, the viability, T/C (second compound 0.316 µM, first compound 0.01 µM) was 11.9% and the viability, T/C [19] was 6.3%. The viability, T/C [20] was 3.66%, the viability, T/C [21] was 2.03% and the viability, T/C [22] was 3.09%. It also gave a viability, T/C (second compound 1 µM, first compound 0.00316 µM) of 17.7%, a viability, T/C (second compound 1 µM, first compound 0.01 µM) of 10.2% and a viability, T/C [25] of 7.3%. The viability, T/C [26] was 4.22%, the viability, T/C [27] was 2.1% and the viability, T/C [28] was 1.8%. The viability, T/C (second compound 3.16 µM, first compound 0.00316 µM) was 17.8%, the viability, T/C (second compound 3.16 µM, first compound 0.01 µM) was 12.4% and the viability, T/C [31] was 7.84%. The viability, T/C [32] was 3.73%, the viability, T/C [33] was 2.41% and the viability, T/C [34] was 1.27%. The viability, T/C (second compound 10 µM, first compound 0.00316 µM) was 13.8%, the viability, T/C (second compound 10 µM, first compound 0.01 µM) was 11.1% and the viability, T/C [37] was 7.08%. It also gave a viability, T/C [38] of 5.03%, a viability, T/C [39] of 3.52% and a viability, T/C [40] of 1.51%.

With `CC(CO)NC(=O)c1cc(-c2ccc(Cl)cc2)nn(-c2cnn(C)c2)c1=O` (stereo not given) the viability, T/C (compound 0.0316 µM) was 92.5% and 94.5%, the viability, T/C (compound 0.1 µM) was 89.1% and 85.5% and the viability, T/C (compound 0.316 µM) was 94.6% and 92.7%. For the same compound, the viability, T/C (compound 1 µM) was 93.5% and 99.6%, the viability, T/C (compound 3.16 µM) was 110% and 99.5% and the viability, T/C (compound 10 µM) was 82.2% and 94%. The IC50 (curve of compound) was greater than 10 µM.
